Molecules are shown by their SMILES. “Also recorded” adds a separate entry of the source. Read-outs that look alike come from different tables or passages of the source. A value given as a limit tells only on which side of the number the result lay.

For data set [1], the target named is T1, drug−Top1−DNA cleavage complexes (Homo sapiens, UniProt P11387).
T1 sequence (P11387 1-765): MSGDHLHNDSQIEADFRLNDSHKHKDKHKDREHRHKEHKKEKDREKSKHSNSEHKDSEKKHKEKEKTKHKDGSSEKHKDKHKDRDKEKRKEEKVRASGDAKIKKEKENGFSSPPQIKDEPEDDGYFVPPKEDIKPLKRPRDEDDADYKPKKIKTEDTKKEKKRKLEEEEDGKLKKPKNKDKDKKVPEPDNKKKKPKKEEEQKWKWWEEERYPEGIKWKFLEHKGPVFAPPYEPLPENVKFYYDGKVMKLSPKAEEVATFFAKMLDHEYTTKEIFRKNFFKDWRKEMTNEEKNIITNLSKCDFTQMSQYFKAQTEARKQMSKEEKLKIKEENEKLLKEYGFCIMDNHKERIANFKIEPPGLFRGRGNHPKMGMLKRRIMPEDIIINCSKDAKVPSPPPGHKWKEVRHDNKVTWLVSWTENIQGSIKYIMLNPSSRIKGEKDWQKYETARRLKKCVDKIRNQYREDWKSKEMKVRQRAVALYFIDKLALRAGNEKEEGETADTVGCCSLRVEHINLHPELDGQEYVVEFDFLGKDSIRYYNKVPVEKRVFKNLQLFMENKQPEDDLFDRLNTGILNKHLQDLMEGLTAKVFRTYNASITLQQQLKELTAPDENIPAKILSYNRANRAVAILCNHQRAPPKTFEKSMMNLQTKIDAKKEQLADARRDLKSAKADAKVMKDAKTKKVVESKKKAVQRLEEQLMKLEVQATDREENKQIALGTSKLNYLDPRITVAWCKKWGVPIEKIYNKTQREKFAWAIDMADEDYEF
The data set is described as follows: Kinetics of reversal assay of Top1-mediated DNA cleavage complexes. Particulars: for reversal of ternary cleavage complexes: common cleavage sites 70, 92, 97 and 119, forward reaction terminated with 0.35 M NaCl. The format is biochemical.

The target of data set [2] is T2, Human recombinant Top1 (Homo sapiens, UniProt P11387).
T2 sequence (P11387 1-765): T1 sequence (P11387 1-765)
Description: Top1-mediated DNA cleavage assay. The class given is biochemical. Conditions: for trapping of Top1 cleavage complexes at low concentration: 5 nM, dose-dependent gel (Figure 8).

In data set [3] the target is T3, recombinant TDP1 (Homo sapiens, UniProt Q9NUW8). Description: Gel-based assay measuring the inhibition of recombinant TDP1. The format is biochemical. Conditions: read-out: TDP1 inhibition; semiquantitative IC50 scale.
A further data set has as its system melanoma UACC-62. Particulars: read-out: cytotoxicity (GI50 in μM) melanoma UACC-62; cited from earlier work.
A further data set relates to prostate DU-145. Particulars: read-out: cytotoxicity (GI50 in μM) prostate DU-145; cited from earlier work.
For the next data set, the system named is breast MCF7. Conditions: read-out: cytotoxicity (GI50 in μM) breast MCF7; cited from earlier work.
The target in data set [4] is T2, Human recombinant Top1. Conditions: graded relative to 1 μM camptothecin; cited from earlier work.
Another data set deals with lung HOP-62. Particulars: read-out: cytotoxicity (GI50 in μM) lung HOP-62; cited from earlier work.
A further data set relates to CNS SF-539. Conditions: read-out: cytotoxicity (GI50 in μM) CNS SF-539; cited from earlier work.
The next data set relates to colon HCT-116. Conditions: read-out: cytotoxicity (GI50 in μM) colon HCT-116; cited from earlier work.
The next data set has as its system ovarian OVACAR-3. Particulars: read-out: cytotoxicity (GI50 in μM) ovarian OVACAR-3; cited from earlier work.
The subject of data set [5] is 60 common human cancer cell lines (NCI-60). Conditions: cited from earlier work.
For a further data set, the system named is renal SN12C. Particulars: read-out: cytotoxicity (GI50 in μM) renal SN12C; cited from earlier work.
In data set [6] the target is T3, recombinant TDP1. Particulars: read-out: TDP1 inhibition; semiquantitative IC50 scale; cited from earlier work.
Where [7] appears, read: read-out: MGM values, range over the named compounds.

T3 sequence (Q9NUW8 whole entry): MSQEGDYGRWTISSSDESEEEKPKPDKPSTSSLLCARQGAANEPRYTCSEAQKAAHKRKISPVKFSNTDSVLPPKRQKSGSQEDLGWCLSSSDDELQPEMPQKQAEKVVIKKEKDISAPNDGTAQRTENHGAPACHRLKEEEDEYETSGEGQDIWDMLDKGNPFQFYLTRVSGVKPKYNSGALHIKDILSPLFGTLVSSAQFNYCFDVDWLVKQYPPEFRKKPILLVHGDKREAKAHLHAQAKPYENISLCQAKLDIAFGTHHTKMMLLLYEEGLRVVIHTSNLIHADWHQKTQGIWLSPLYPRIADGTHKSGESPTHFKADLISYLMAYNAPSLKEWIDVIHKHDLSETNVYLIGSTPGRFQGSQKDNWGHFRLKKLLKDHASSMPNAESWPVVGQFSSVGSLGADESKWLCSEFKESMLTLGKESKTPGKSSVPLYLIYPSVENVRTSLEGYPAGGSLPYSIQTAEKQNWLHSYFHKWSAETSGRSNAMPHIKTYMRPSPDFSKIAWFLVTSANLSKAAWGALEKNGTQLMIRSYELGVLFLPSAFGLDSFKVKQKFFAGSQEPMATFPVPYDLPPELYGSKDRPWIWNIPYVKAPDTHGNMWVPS

As for `O=C1c2cc(O)ccc2-c2c1c1ccc([N+](=O)[O-])cc1c(=O)n2CCCBr` [Compound 68, 6-(3-Bromopropyl)-9-hydroxy-3-nitro-5H-indeno[1,2-c]-isoquinoline-5,11(6H)-dione], in [1], the “reversal of ternary cleavage complexes” value is “quite persistent but did reverse over time; also recorded: reversed slower than that of camptothecin”. The “DNA alkylation / irreversible ternary cleavage complex” value in data set [1] (from decrease of cleavage bands over time) is “did not alkylate or form an irreversible ternary cleavage complex; also recorded: no evidence of DNA alkylation”. Further, the “trapping of Top1 cleavage complexes at low concentration” value at Human recombinant Top1 [2] is “trapped Top1 cleavage complexes at a concentration as low as 5 nM”. The Top1 cleavage result on Human recombinant Top1 [2] (graded relative to 1 μM camptothecin) was “+++++”. For the same molecule, the IC50 at recombinant TDP1 [3] fell in the range of 37 to 111 µM.
With `CC[C@@]1(O)C(=O)OCc2c1cc1n(c2=O)Cc2cc3ccccc3nc2-1` [Compound 1, camptothecin], the GI50 with melanoma UACC-62, with prostate DU-145, with breast MCF7, with lung HOP-62 and in the data set on CNS SF-539 was less than 0.01 µM in each case. In addition, the “reversal of ternary cleavage complexes” value in data set [1] is listed as “reversed much faster”. For the same molecule, at Human recombinant Top1 [2], the “trapping of Top1 cleavage complexes at low concentration” value was “lesser activity at that concentration”. Also, the Top1 cleavage entry at Human recombinant Top1 [4] was “++++”.
Take `COc1cc2c(cc1O)C(=O)c1c-2n(CCCn2ccnc2)c(=O)c2cc(OC)c(OC)cc12` [Compound 11]: the GI50 was less than 0.01 µM with melanoma UACC-62; less than 0.01 µM with colon HCT-116; less than 0.01 µM in the data set on prostate DU-145; 0.02 µM with ovarian OVACAR-3; less than 0.01 µM in the data set on breast MCF7; 55 to 87 nM in data set [5] (setting [7]). Moreover, the GI50 with renal SN12C, in the data set with lung HOP-62 and with CNS SF-539 was less than 0.01 µM in each case.
As to `COc1cc2c(cc1O)C(=O)c1c-2n(CCCN2CCOCC2)c(=O)c2cc(OC)c(OC)cc12` [Compound 10], the GI50 was 0.02 µM in the data set with melanoma UACC-62; 0.03 µM in the data set on colon HCT-116; 0.02 µM in the data set on prostate DU-145; 0.03 µM in the data set with ovarian OVACAR-3; 0.02 µM in the data set on breast MCF7; 55 to 87 nM in [5] (setting [7]). Also, the GI50 with renal SN12C, with lung HOP-62 and with CNS SF-539 was 0.02 µM in each case. In addition, at Human recombinant Top1 [4], the Top1 cleavage result is recorded as “+++++”.
On to `COc1cc2c(cc1O)-c1c(c3cc(OC)c(OC)cc3c(=O)n1CCCN1CCOCC1)C2=O` [Compound 8], for which the GI50 is 0.07 µM in the data set with melanoma UACC-62; 2.3 µM with colon HCT-116; 0.2 µM in the data set with prostate DU-145; 8.3 µM in the data set on ovarian OVACAR-3; 0.03 µM in the data set on breast MCF7; 3100 ± 300 nM in data set [5] (read-out: MGM, average GI50 across 60 cell lines). Moreover, the figures for the GI50 with renal SN12C, with lung HOP-62 and in the data set on CNS SF-539 were 0.19 µM, 0.18 µM and 0.28 µM, respectively. Further, the IC50 at recombinant TDP1 [6] was 37 to 111 µM.

These data come from publication PMC7747014 (Journal of medicinal chemistry, 2015).
